Reference: patent publication US20190125745A1, “TREATMENT AND DIAGNOSIS OF CANCER” (Rgenix, Inc., priority 2014, published 2019)
Structures can show the parent of a compound that is named as a salt.

How the values were obtained:
[1] = system: MeWo, HT-144, SK-Mel-2, SK-Mel-334.2 human melanoma cells; assay: Cell invasion assay (trans-well matrigel); assay type: cell-based; conditions: MeWo, 1 μM, 72 hours
Source text: FIG. 2. Activation of LXRβ Signaling Suppresses Melanoma Cell Invasion and Endothelial Recruitment. (A) Heat-map depicting microarray-based expression levels of LXR and RXR isoforms in the NCI-60 melanoma cell line collection. The heat map for these genes is extracted from the larger nuclear hormone receptor family heat map (FIG. 3). Color-map key indicates the change in standard deviations for the expression value of each receptor relative to the average expression value of all microarray-profiled genes (>39,000 transcript variants) in each cell line. (B) Cell invasion by 1×10^5 MeWo, 5×10^4 HT-144, 5×10^5 SK-Mel-2, and 5×10^4 SK-Mel-334.2 human melanoma cells. Cells were treated with DMSO, GW3965, T0901317, or Bexarotene at 1 μM for 72 hours and subjected to a trans-well matrigel invasion assay. n=4-8. (C) 5×10^4 MeWo, HT-144, SK-Mel-2, and SK-Mel-334.2 human melanoma cells were tested for their ability to recruit 1×10^5 endothelial cells in a trans-well migration assay, following treatment of the melanoma cells with DMSO, GW3965, T0901317, or Bexarotene at 1 μM for 72 hours. n=4-8. […] Scale bar, 50 μm. *p<0.05, **p<0.01, ***p<0.001, ****p<0.0001.
The cell invasion assay was performed as previously described in detail (Pencheva et al., 2012) using a trans-well matrigel invasion chamber system (354480, BD Biosciences). In brief, various melanoma cells were cultured in the presence of DMSO, GW3965, T0901317, or Bexarotene at 1 μM for 56 hours, after which melanoma cells were switched to starvation media (0.2% FBS) for 16 hours in the presence of each drug. Following starvation, cells were seeded into matrigel-coated trans-well inserts, and the invasion assay was allowed to proceed for 24 hours at […]. For ApoE antibody neutralization experiments, 40 μg/mL 1 D7 anti-ApoE blocking antibody (Heart Institute, University of Ottawa, Ottawa, Canada) or […] anti-IgG control antibody (AB-108-C, R&D Systems, Minneapolis, Minn.) was added to each trans-well insert at the start of the assay.
The cells were then serum starved for 16 hours in 0.2% FBS media in the presence of each corresponding drug or DMSO. Following serum starvation, the cells were subjected to the trans-well invasion assay using a matrigel invasion chamber system (354480, BD Biosciences). Invasion chambers were pre-equilibrated prior to the assay by adding 0.5 mL of starvation media to the top and bottom wells. Meanwhile, cancer cells were trypsinized and viable cells were counted using trypan blue. Cancer cells were then resuspended at a concentration of 2×10^5 cells/1 mL starvation media, and 0.5 mL of cell suspension, containing 1×10^5 cells, was seeded into each trans-well. The invasion assay was allowed to proceed for 24 hours at 37° C. […] Following fixation, the inserts were washed in PBS, cut out, and mounted onto slides using VectaShield mounting medium containing DAPI nuclear stain (H-1000, Vector Laboratories). The basal side of each insert was imaged using an inverted fluorescence microscope (Zeiss Axiovert 40 CFL) at 5× magnification, and the number of DAPI-positive cells was quantified using ImageJ.

[2] = system: B16F10 mouse melanoma cells; assay: Subcutaneous B16F10 tumor growth in C57BL/6 mice; assay type: in vivo
Description: FIG. 4. Therapeutic LXR Activation Inhibits Melanoma Tumor Growth. […] Representative tumor images shown correspond to tumors extracted at the final day (d12). n=10-18 (A), 8-10 (B). (C-E) Primary tumor growth by 1×10^6 MeWo (C), […] SK-Mel-334.2 (D), and 2×10^6 SK-Mel-2 (E) human melanoma cells subcutaneously injected into immunocompromised mice. […] Tumor images shown correspond to last day of measurements. n=6-34 (C), 8 (D), 5 (E). (F) 5×10^4 B16F10 cells were injected subcutaneously into C57BL/6-WT mice. Upon tumor growth to 150 mm^3, mice were fed continuously with a control chow or a chow containing GW3965 (150 mg/kg), and tumor growth was measured daily. n=6-13. […] Tumor volume was calculated as (small diameter)^2×(large diameter)/2. […] Scale bars, 5 mm (A-D), 50 μm (J, K), 25 μm (L).
The mice were palpated daily for tumor formation and after detection of tumors measuring […] in volume, the mice were assigned to a control chow or a chow containing each respective LXR agonist: LXR-623 (20 mg/kg/day), WO-2007-002563 Ex. 19 (100 mg/kg/day), WO-2010-0138598 Ex. 9 (10 mg/kg/day or 100 mg/kg/day), or SB742881 (100 mg/kg/day). The LXR drug compounds were formulated in the mouse chow by Research Diets, Inc. Tumor dimensions were measured using digital calipers, and tumor volume was calculated as (small diameter)^2×(large diameter)/2.

[3] = system: DTIC-resistant MeWo human melanoma cells; conditions: oral, diet 100 mg/kg
Description: Tumor growth was measured twice a week.

Compound: O=C(O)Cc1cccc(OCCCN(Cc2cccc(C(F)(F)F)c2Cl)CC(c2ccccc2)c2ccccc2)c1 [GW3965 108, 3-[3-[N-(2-Chloro-3-trifluoromethylbenzyl)-(2,2-diphenylethyl)amino]propyloxy] phenylacetic acid hydrochloride]
- suppression of cell invasion and endothelial recruitment upon knockdown of ApoE in melanoma cells [1]: blocked
- ability to suppress invasion and endothelial recruitment upon knockdown of melanoma LXRβ, but not LXRα ([1]; HT-144): abrogated
- primary tumor growth in vivo (FIG. 4) ([2]; mouse, in vivo): inhibit
- reduction in the growth of established large B16F10 tumors ([2]; tumors ~150 mm^3 at start, chow 150 mg/kg): roughly 50%
- growth of in vivo-derived DTIC-resistant human melanoma tumors (MeWo) [3]: strongly inhibited
